The conditions of this data set: Crystal; DTA.

Drawing on the NIST ThermoML archive (doi:10.1021/acs.jced.8b00780), this text covers Normal melting temperature for one molecule.

Numbers after ± are expanded uncertainties.

On to `C=C1C[C@@]23CC[C@H]4[C@@](C)(CCC[C@@]4(C)C(=O)O[C@@H]4O[C@H](CO)[C@@H](O)[C@H](O)[C@H]4O)[C@@H]2CC[C@]1(O[C@@H]1O[C@H](CO)[C@@H](O)[C@H](O[C@@H]2O[C@H](CO)[C@@H](O)[C@H](O)[C@H]2O)[C@H]1O[C@@H]1O[C@H](CO)[C@@H](O)[C@H](O)[C@H]1O)C3` [rebaudioside A], for which the Normal melting temperature stood at 231.98 ± 1.1 °C.
